Assay results as given in ChEMBL document CHEMBL4725277, “Synthetic and therapeutic perspectives of nitrogen containing heterocycles as anti-convulsants” (Bioorg Med Chem, 2020).

What was measured:
Mus musculus [1] = experiment: Anticonvulsant activity in albino mouse assessed as protection against 50 mA current-induced seizure at 25 mg/kg by maximal electroshock seizure test relative to control; assay type: functional
[2] = Neurotoxicity in mouse by rotarod test; assay type: toxicity; conditions: in vivo
Mus musculus [3] = organism: Mus musculus; experiment: Anticonvulsant activity in mouse assessed as protection against 50 mA current-induced seizure after 0.5 hrs by maximal electroshock seizure test; assay type: functional
[4] = Protective index, ratio of TD50 for neurotoxicity in mouse to ED50 for anticonvulsant activity in mouse assessed as protection against 50 mA current-induced seizure; assay type: toxicity; conditions: in vivo, read-out: PI
[5] = Protective index, ratio of TD50 for neurotoxicity in mouse to ED50 for anticonvulsant activity in mouse assessed as protection against pentylenetetrazole-induced seizure; assay type: toxicity; conditions: in vivo, read-out: PI
Mus musculus [6] = organism: Mus musculus; experiment: Anticonvulsant activity in mouse assessed as protection against current-induced seizure by maximal electroshock seizure test; assay type: functional
Mus musculus [7] = organism: Mus musculus; experiment: Anticonvulsant activity in albino mouse assessed as pentylenetetrazole-induced seizure; assay type: functional
[8] = Protective index, ratio of TD50 for neurotoxicity in mouse to ED50 for anticonvulsant activity in mouse assessed as protection against current-induced seizure; assay type: toxicity; conditions: in vivo, read-out: PI
[9] = Protective index, ratio of TD50 for neurotoxicity in ip and po injected mouse to ED50 for anticonvulsant activity in mouse assessed as protection against 50 mA current-induced seizure; assay type: toxicity, organism-based; conditions: in vivo, read-out: PI
[10] = Neurotoxicity in ip and po injected mouse; assay type: toxicity, organism-based; conditions: in vivo
Mus musculus [11] = organism: Mus musculus; experiment: Anticonvulsant activity in albino mouse assessed as current-induced seizure latency time; assay type: functional
Mus musculus [12] = organism: Mus musculus; experiment: Anticonvulsant activity in albino mouse assessed as current-induced seizure relative to control; assay type: functional
[13] = Neurotoxicity in ip injected albino mouse; assay type: toxicity, organism-based; conditions: in vivo
[14] = Protective index, ratio of TD50 for neurotoxicity in ip injected albino mouse to ED50 for anticonvulsant activity in ip injected albino mouse assessed as protection against 50 mA current-induced seizure; assay type: toxicity, organism-based; conditions: in vivo
Mus musculus [15] = experiment: Anticonvulsant activity in ip injected albino mouse assessed as protection against 50 mA current-induced seizure by maximal electroshock seizure test; assay type: functional
Mus musculus [16] = organism: Mus musculus; experiment: Anticonvulsant activity in KunMing mouse assessed as protection against pentylenetetrazole-induced seizure by maximal electroshock seizure test; assay type: functional
[17] = Protective index, ratio of TD50 for neurotoxicity in KunMing mouse to ED50 for anticonvulsant activity in KunMing mouse assessed as protection against pentylenetetrazole-induced seizure; assay type: toxicity; conditions: in vivo, read-out: PI
Mus musculus [18] = organism: Mus musculus; experiment: Anticonvulsant activity in KunMing mouse assessed as protection against current-induced seizure by maximal electroshock seizure test; assay type: functional
[19] = Protective index, ratio of TD50 for neurotoxicity in KunMing mouse to ED50 for anticonvulsant activity in KunMing mouse assessed as protection against current-induced seizure; assay type: toxicity; conditions: in vivo, read-out: PI
[20] = Neurotoxicity in KunMing mouse by rotarod test; assay type: toxicity; conditions: KunMing, in vivo, read-out: TD50
Mus musculus [21] = organism: Mus musculus; experiment: Anticonvulsant activity in KunMing mouse assessed as protection against 50 mA current-induced seizure after 0.5 to 4 hrs by maximal electroshock seizure test; assay type: functional; conditions: time hrs 0.5-4
Mus musculus [22] = experiment: Anticonvulsant activity in ip injected albino mouse assessed as protection against 50 mA current-induced seizure after 0.5 to 4 hrs interval by maximal electroshock seizure test; assay type: functional; conditions: time hrs 0.5-4
Mus musculus [23] = organism: Mus musculus; experiment: Anticonvulsant activity in albino mouse assessed as pentylenetetrazole-induced seizure measured after 30 mins; assay type: functional; conditions: 0.5 h
[24] = Protective index, ratio of TD50 for neurotoxicity in ip injected albino mouse to ED50 for anticonvulsant activity in albino mouse assessed as pentylenetetrazole-induced seizure; assay type: toxicity, organism-based; conditions: in vivo
Mus musculus [25] = organism: Mus musculus; experiment: Anticonvulsant activity in albino mouse assessed as protection against 50 mA current-induced seizure by maximal electroshock seizure test; assay type: functional
Mus musculus [26] = experiment: Anticonvulsant activity in albino mouse assessed as protection against 50 mA current-induced seizure at 50 mg/kg by maximal electroshock seizure test relative to control; assay type: functional
Mus musculus [27] = organism: Mus musculus; experiment: Anticonvulsant activity in albino mouse assessed as protection against 50 mA current-induced seizure; assay type: functional; conditions: read-out: PD50
Mus musculus [28] = experiment: Anticonvulsant activity in albino mouse assessed as protection against 50 mA current-induced seizure at 100 mg/kg by maximal electroshock seizure test relative to control; assay type: functional
Mus musculus [29] = experiment: Anticonvulsant activity in albino mouse assessed as protection against 50 mA current-induced seizure at 200 mg/kg by maximal electroshock seizure test relative to control; assay type: functional
[30] = Lipophilicity, log P of the compound; assay type: physicochemical; conditions: octanol/water
[31] = Neurotoxicity in albino rat at 100 mg/kg, ip after 30 mins (reference value: 2%); assay type: toxicity, organism-based; conditions: in vivo, 0.5 h
[32] = Protective index, ratio of TD50 for neurotoxicity in KunMing mouse to ED50 for anticonvulsant activity in KunMing mouse assessed as protection against 50 mA current-induced seizure; assay type: toxicity; conditions: in vivo, read-out: PI
[33] = Neurotoxicity in KunMing mouse after 30 mins by rotarod test; assay type: toxicity; conditions: in vivo
Mus musculus [34] = organism: Mus musculus; experiment: Anticonvulsant activity in KunMing mouse assessed as protection against 50 mA current-induced seizure after 30 mins interval by maximal electroshock seizure test; assay type: functional; conditions: 0.5 h

Work on Clc1ccc(Nc2nnc(-c3ccncc3)s2)cc1 yielded an Activity (Mus musculus [1]) of 100%.

Molecule FC(F)(F)c1cccc(COc2nn3cnnc3c3ccccc23)c1 has a TD50 [2] of 853 mg/kg, an ED50 (Mus musculus [3]; Mus musculus, read-out: ED50) of 9.3 mg/kg and a selectivity ratio [4] of 91.7.

Work on Cc1ccc(NC(=S)N2C(=S)N=C(c3ccccc3)CC2c2ccc(O)cc2)cc1 (centres undefined) yielded a selectivity ratio [5] of 1.9, a TD50 [2] of 534 mg/kg and an ED50 (Mus musculus [6]) of 15.6 mg/kg. For the same molecule, the ED50 (Mus musculus [7]) was 278 mg/kg and the selectivity ratio [8] was 34.2.

Molecule O=c1c2ccccc2n2cnnc2n1-c1ccc(Cl)cc1 has a selectivity ratio [9] of over 25.6, an ED50 (Mus musculus [3]) of 27.39 and a TD50 [10] of over 700 mg/kg.

Work on CC(=O)Oc1cc2ccccc2cc1-c1nnc(N(CCc2ccccc2)C(C)=O)s1 yielded a Time (Mus musculus [11]) of 5.92 min and an Activity (Mus musculus [12]) of 90%.

Nc1nc(-c2ccccc2)nnc1C(=O)N1CCCC1c1noc2cc(Cl)ccc12 (centres undefined) gave a TD50 [13] of 103 mg/kg, a selectivity ratio ([14]; read-out: Ratio) of over 18 and an ED50 (Mus musculus [15]) of 5.7 mg/kg.

For Clc1ccc(C2Cc3nncn3-c3ccsc32)cc1 (centres undefined), the ED50 (Mus musculus [16]) was 20.5 mg/kg, the selectivity ratio [17] was 22.2 and the ED50 (Mus musculus [18]) was 9.5 mg/kg. It also gave a selectivity ratio [19] of 48 and a TD50 [20] of 456 mg/kg.

Molecule O=c1[nH]nc2n1-c1ccc(OCc3ccc(F)cc3)cc1SCC2 has a TD50 [2] of 331 mg/kg, a selectivity ratio [4] of 12.6 and an ED50 (Mus musculus [21]) of 26.3 mg/kg.

Work on COc1ccc(N2C(=S)N=C(c3ccccc3)CC2c2ccccc2)cc1 (centres undefined) yielded a TD50 [13] of 534 mg/kg, a selectivity ratio ([14]; read-out: PI) of 31.8 and an ED50 (Mus musculus [22]) of 16.8 mg/kg. The ED50 (Mus musculus [23]) was 378 mg/kg and the selectivity ratio ([24]; read-out: PI) was 1.4.

With Nc1nnc(-c2ccccc2OCc2ccccc2F)o1 the ED50 (Mus musculus [23]) was 9 mg/kg and the ED50 (Mus musculus [25]) was 16.2 mg/kg.

O=C1CN=C2c3ccccc3N=C(COc3ccc(Cl)cc3Cl)N2N1 gave an Activity (Mus musculus [26]) of 60%, an ED50 (Mus musculus [27]) of 87.5 mg/kg and an Activity (Mus musculus [28]) of 90%. The Activity (Mus musculus [29]) was 90%.

Work on COc1ccc(-c2nc(N/N=C/c3ccc(Br)cc3)[nH]c(=O)c2C#N)cc1 yielded a logP [30] of 2.45.

In the case of Clc1ccc(Nc2nnc(-c3ccncc3)o2)cc1, the Activity (Mus musculus [1]) is reported as 100%.

COc1ccc(-c2nc(N/N=C/c3ccc(O)cc3)[nH]c(=O)c2C#N)cc1 showed a logP [30] of 1.27.

Work on CN(C)CCOc1ccc2c(c1)C(=O)C(=O)N2 yielded an Activity [31] of 7%.

In the case of Clc1ccc(Oc2cccc3nncn23)cc1, the TD50 [2] is reported as 63.4 mg/kg, the ED50 (Mus musculus [6]) is reported as 13.2 mg/kg and the selectivity ratio [8] is reported as 4.8.

Work on CCCCOc1ccc2c(c1)sc1n[nH]c(=O)n12 yielded a TD50 [2] of over 700 mg/kg, an ED50 (Mus musculus [6]) of 13.6 mg/kg and a selectivity ratio [8] of over 51.

With CCCCCCOc1ccc2c(c1)CCc1nnc(C(N)=O)n1-2 the selectivity ratio [32] was 9.5, the TD50 at 0.5 h [33] was 286 mg/kg and the ED50 (Mus musculus [34]) was 30.1 mg/kg.

Molecule CN(C)Nc1ccc(/C=N/Nc2nnc(-c3ccccc3)nc2Cc2cccc(Cl)c2)cc1 has a TD50 [13] of 435 mg/kg, a selectivity ratio ([14]; read-out: Ratio) of 8.01 and an ED50 (Mus musculus [22]) of 54.3 mg/kg. It also gave an ED50 (Mus musculus [23]) of 92 mg/kg and a selectivity ratio ([24]; read-out: Ratio) of 4.73.
